The record followed here is patent US12516058B2, “Small-molecule compounds for controlling endosomal toll-like receptors and therapeutic agent for autoimmune diseases using same” (priority 2020, dated 2026).

This assay concerns the target T1, TLR8 (Homo sapiens, UniProt Q9NR97).
T1 construct: endogenous in cells; host or cells: THP-1 (PMA-differentiated)
T1 sequence (Q9NR97 27-1041): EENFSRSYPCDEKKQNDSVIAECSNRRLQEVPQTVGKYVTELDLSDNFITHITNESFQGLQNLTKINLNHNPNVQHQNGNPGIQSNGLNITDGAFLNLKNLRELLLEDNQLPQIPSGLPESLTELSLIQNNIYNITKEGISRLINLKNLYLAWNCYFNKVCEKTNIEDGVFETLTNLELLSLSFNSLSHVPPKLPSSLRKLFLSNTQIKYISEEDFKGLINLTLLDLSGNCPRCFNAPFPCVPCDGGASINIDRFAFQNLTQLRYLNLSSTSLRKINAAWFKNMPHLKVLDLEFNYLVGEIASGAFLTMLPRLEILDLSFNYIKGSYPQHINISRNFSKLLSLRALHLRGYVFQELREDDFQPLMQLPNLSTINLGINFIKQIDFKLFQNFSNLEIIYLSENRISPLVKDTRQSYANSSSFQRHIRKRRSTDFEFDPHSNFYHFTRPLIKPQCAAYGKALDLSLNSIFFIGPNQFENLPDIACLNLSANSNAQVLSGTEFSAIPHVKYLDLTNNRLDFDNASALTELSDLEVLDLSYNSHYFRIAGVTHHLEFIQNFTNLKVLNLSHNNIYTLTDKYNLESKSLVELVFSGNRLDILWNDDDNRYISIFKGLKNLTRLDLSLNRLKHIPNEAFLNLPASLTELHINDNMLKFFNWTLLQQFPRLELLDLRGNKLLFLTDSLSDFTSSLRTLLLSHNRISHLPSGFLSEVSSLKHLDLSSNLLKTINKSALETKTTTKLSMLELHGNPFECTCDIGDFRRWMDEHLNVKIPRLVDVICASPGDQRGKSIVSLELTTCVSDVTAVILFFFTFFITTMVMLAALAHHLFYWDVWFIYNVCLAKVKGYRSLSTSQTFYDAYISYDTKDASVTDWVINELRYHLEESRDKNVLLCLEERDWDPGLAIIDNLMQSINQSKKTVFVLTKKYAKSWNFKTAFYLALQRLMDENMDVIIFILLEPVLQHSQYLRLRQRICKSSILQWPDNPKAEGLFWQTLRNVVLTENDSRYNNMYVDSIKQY
The assay is described as follows: TNF-α secretion ELISA after TLR8 agonist TL8-506 in PMA-differentiated THP-1 cells. It is filed as cell-based. Conditions: SK01, TL8-506 4 h. On the procedure:
FIGS. 5A to 5C show the inhibitory activities of SK01 on TLRs (TLR1/2, TLR2/6 and TLR4) exposed to the cell surface, and FIGS. 5D to 5G show the inhibitory activities of SK01 against endosome TLRs (TLR3, TLR7, TLR8 and TLR9), wherein RAW 264.7 cells were treated at predetermined concentrations with a negative control, a positive control (only ligand), additional positive control (ligand and 0.25% DMSO), or SK01 for 1 hour, and then stimulated with TLR-specific agonists for 4 or 24 hours (TLR3 only), a human monocytic cell line (THP-1) was used for TLR8 and THP-1 cells were treated with phorbol 12-myristate 13-acetate for 48 hours to induce cell differentiation, then treated with SK01 for 1 hour, and was treated with the TLR8 agonist TL8-506 for 4 hours, and the level of TNF-α secretion was measured by ELISA.
(In an ELISA, binding on a coated surface is turned into a signal by an enzyme label.)

Take `Cc1c(C)n(CCN(C)C)c2nc3c(c(N)c12)CCCCC3` [SK01, 1-(2-(dimethylamino)ethyl)-2,3-dimethyl-1,5,6,7,8,9-hexahydrocyclohepta[b]pyrrolo[3,2-e]pyridin-4-amine]: the “activity against TLR8” value was “no activity”.
